Results as given in patent US6410533B1, “Antibacterial compounds” (Genzyme Corporation, priority 2000, dated 2002).
Converted amounts (≈) assume the structure as drawn. Read-outs that look alike come from different tables or passages of the source.

Columns and labels:
[1] = test system: methicillin-resistant Staphylococcus aureus (ATCC 33591); test: In vivo mouse intraperitoneal infection, mortality and % survivors over 7 days; conditions: 1 and 5 h post inoculation, MRSA ATCC 33591 i.p., ICR mice
Description: Ten male ICR mice weighing 20 grams were inoculated intraperitoneally with an LD90-100 dose (2-3×10^7 CFU/mouse) of methicillin-resistant Staphylococcus aureus (ATCC 33591) in brain-heart infusion broth containing 5% mucin. Compounds were suspended in a vehicle containing 1% cremophore EL (Sigma) in normal saline and were administered subcutaneously in a volume of 0.4 ml per mouse either 1 hour following bacterial inoculation or 1 and 5 hours post inoculation. Animals receiving two doses of drug were injected subcutaneously in the hindquarter one hour post-innoculation and in the neck area, 5 hours post-innoculation. Deaths occurring during the subsequent 7 days are recorded. Mortality and % survivor endpoints are calculated.

[2] = test system: Staphylococcus aureus bacteria (ATCC 9604 SV); test: Minimal inhibitory concentration (MIC), broth microdilution; format: cell-based; conditions: 24 h at 37° C.
Description: (§1) Minimal inhibitory concentrations (MICs) for Staphylococcus aureus bacteria (ATCC 9604 SV) were determined by broth microdilution methodology following National Committee for Clinical Laboratory Standards. In the MIC determinations, the compounds were incorporated into Mueller-Hinton broth (Becton Dickinson Microbiology systems, Cockeyville, Md.) at a series of concentrations. After the test organism was grown overnight in TB broth, the broths were adjusted to the turbidity equivalent to 0.05 McFarland standard. The suspensions were diluted twenty-fold into the broth containing the compounds. […] In the IC50 determination, the method was modified to allow the rapid growth of the organisms. The inoculum suspensions were adjusted to 0.1 McFarland standard and then diluted two-fold into the wells containing TB broth and the compounds. After three to five hours incubation at 37° C., the turbidity was measured at 550 nm and inhibitory activity was defined as the concentration of antimicrobial agent that inhibits 50% growth of the organism in the microdilution wells.

[3] = test system: Staphylococcus aureus bacteria (ATCC 9604 SV); test: IC50 determination, growth inhibition by turbidity at 550 nm; format: cell-based; conditions: Staphylococcus aureus ATCC 9604 SV; turbidity at 550 nm after 3-5 h at 37° C.
Description: as §1

[4] = Staphylococcus aureus ATCC 9604 SV
[5] = ATCC9604, Staphylococcus aureus ATCC 9604 SV, read-out: MIC

| IC50 [3] [nM] | SMILES | In Vivo, double dose (% of mice rescued) ([1]; 2 × 2 mg/kg s.c.) [% @ 2 × 2 mg/kg] | In Vivo, double dose (% of mice rescued) ([1]; 2 × 20 mg/kg s.c.) [% @ 2 × 20 mg/kg] | MIC [2, 4] [µg/mL] | MIC [2, 5] [µg/mL] |
| --- | --- | --- | --- | --- | --- |
| – | O=C(O)c1ccccc1C=C1C(=O)N(c2cc(Cl)cc(Cl)c2)N=C1c1ccccc1 [Compound 24] | 0 | 0 | 1.35 (≈ 3.09 µM) | – |
| – | CC(=O)C=C1C(=O)N(c2cc(Cl)cc(Cl)c2)N=C1c1ccccc1 [Compound 25] | 0 | 0 | 3.12 (≈ 8.69 µM) | – |
| – | O=C1C(=Cc2cccnc2)C(c2ccccc2)=NN1c1cc(Cl)cc(Cl)c1 [Compound 30] | 0 | 0 | 1.20 (≈ 3.04 µM) | – |
| – | CN1CCC(=C2C(=O)N(c3cc(Cl)cc(Cl)c3)N=C2c2ccccc2)CC1 [Compound 31, 2-(3,5-Dichloro-phenyl)-4-(1-methyl-piperidin-4-ylidene)-5-phenyl-2,4-dihydropyrazol-3-one] | 0 | 0 | – | 5 (≈ 12.5 µM) |
| – | O=C1C(=Cc2ccsc2)C(c2ccccc2)=NN1c1cc(Cl)cc(Cl)c1 [Compound 33] | 25 | 0 | 5.00 (≈ 12.5 µM) | – |
| – | O=C1C(=Cc2ccoc2)C(c2ccccc2)=NN1c1cc(Cl)cc(Cl)c1 [Compound 34] | 25 | 25 | 2.40 (≈ 6.26 µM) | – |
| – | O=C1Nc2ccccc2C1=C1C(=O)N(c2cc(Cl)cc(Cl)c2)N=C1c1ccccc1 [Compound 42] | 0 | 0 | 1.20 (≈ 2.76 µM) | – |
| – | O=C(O)C=C1C(=O)N(c2cc(Cl)cc(Cl)c2)N=C1c1ccccc1 [Compound 46] | 0 | 0 | 1.50 (≈ 4.15 µM) | – |
| – | COc1ccc(C(=O)C2C(=O)N(c3cc(Cl)cc(Cl)c3)N=C2c2ccccc2)cc1 (centres unmarked) [Compound 49] | 0 | 25 | 10.0 (≈ 22.8 µM) | – |
| – | O=C(c1ccccn1)C1C(=O)N(c2cc(Cl)cc(Cl)c2)N=C1c1ccccc1 (centres unmarked) [Compound 50, 2-(3,5-Dichloro-phenyl)-5-phenyl-4-(pyridine-2-carbonyl)-2,4-dihydro-pyrazol-3-one] | 0 | 0 | – | 10.3 (≈ 25.1 µM) |
| – | O=C(O)c1cccc(C=C2C(=O)N(c3cc(Cl)cc(Cl)c3)N=C2c2ccccc2)c1 [Compound 51] | 25 | 25 | 1.31 (≈ 3 µM) | – |
| – | O=C(O)c1ccc(C=C2C(=O)N(c3cc(Cl)cc(Cl)c3)N=C2c2ccccc2)cc1 [Compound 52] | 0 | 0 | 0.656 (≈ 1.5 µM) | – |
| – | CCC1=NN(c2cc(Cl)cc(Cl)c2)C(=O)C1=Cc1cccnc1 [Compound 54] | 0 | 12.5 | 0.750 (≈ 2.17 µM) | – |
| – | CCC1=NN(c2cc(Cl)cc(Cl)c2)C(=O)C1=Cc1ccco1 [Compound 55] | 0 | 25 | 1.50 (≈ 4.48 µM) | – |
| – | CCC1=NN(c2cc(Cl)cc(Cl)c2)C(=O)C1=C1C(=O)Nc2ccccc21 [Compound 56] | 0 | 0 | 1.50 (≈ 3.88 µM) | – |
| – | CCC1=NN(c2cc(Cl)cc(Cl)c2)C(=O)C1=CC(=O)O [Compound 57] | 0 | 0 | 6.25 (≈ 20 µM) | – |
| – | CCC1=NN(c2cc(Cl)cc(Cl)c2)C(=O)C1=Cc1cccc(C(=O)O)c1 [Compound 58] | 25 | 12.5 | 6.25 (≈ 16.1 µM) | – |
| – | CCC1=NN(c2cc(Cl)cc(Cl)c2)C(=O)C1=Cc1ccc(C(=O)O)cc1 [Compound 59] | 12.5 | 12.5 | 0.400 (≈ 1.03 µM) | – |

| IC50 [3] [nM] | SMILES | In Vivo, double dose (% of mice rescued) ([1]; 2 × 2 mg/kg s.c.) [% @ 2 × 2 mg/kg] | In Vivo, double dose (% of mice rescued) ([1]; 2 × 20 mg/kg s.c.) [% @ 2 × 20 mg/kg] | MIC [2, 4] [µg/mL] | MIC [2, 5] [µg/mL] |
| --- | --- | --- | --- | --- | --- |
| – | O=C1CC(Cc2ccccc2)=NN1c1cc(Cl)cc(Cl)c1 [Compound 65] | 0 | 0 | 0.958 (≈ 3 µM) | – |
| – | O=C1C(CCc2ccccn2)C(c2ccccc2)=NN1c1cc(Cl)cc(Cl)c1 (centres unmarked) [Compound 66] | 25 | 0 | 5.13 (≈ 12.5 µM) | – |
| 330 | O=C(Nc1cc(C(F)(F)F)cc(C(F)(F)F)c1)Nc1c(-c2ccccc2)cnn1-c1ccc(C(F)(F)F)cc1 [Compound 71] | – | – | – | – |
| 206 | O=C(Nc1cc(C(F)(F)F)cc(C(F)(F)F)c1)Nc1cc(-c2cccc(Cl)c2)nn1-c1ccc(C(F)(F)F)cc1 [Compound 78] | – | – | – | – |
| 126 | O=C(Nc1cc(C(F)(F)F)cc(C(F)(F)F)c1)Nc1cc(-c2ccc(Cl)cc2)nn1-c1ccc(C(F)(F)F)cc1 [Compound 79] | – | – | – | – |
| 539 | O=C(Nc1cc(C(F)(F)F)cc(C(F)(F)F)c1)Nc1cc(-c2cccc(C(F)(F)F)c2)nn1-c1ccc(C(F)(F)F)cc1 [Compound 80] | – | – | – | – |
| 159 | O=C(Nc1cc(C(F)(F)F)cc(C(F)(F)F)c1)Nc1cc(-c2ccc(OC(F)(F)F)cc2)nn1-c1ccc(C(F)(F)F)cc1 [Compound 81] | – | – | – | – |
| 149 | COc1ccc(-c2cc(NC(=O)Nc3cc(C(F)(F)F)cc(C(F)(F)F)c3)n(-c3ccc(C(F)(F)F)cc3)n2)cc1 [Compound 82] | – | – | – | – |
| 359 | O=C(Nc1cc(C(F)(F)F)cc(C(F)(F)F)c1)Nc1cc(-c2ccccn2)nn1-c1ccc(C(F)(F)F)cc1 [Compound 85] | – | – | – | – |
| 1630 | Cc1cc(-c2cc(NC(=O)Nc3cc(Cl)cc(Cl)c3)n(-c3ccc(Br)cc3)n2)no1 [Compound 114] | – | – | – | – |
| 513 | CC(C)(C)c1csc(NC(=O)Nc2cc(C(F)(F)F)cc(C(F)(F)F)c2)n1 [Compound 124] | – | – | – | – |
| 2070 | O=C(Nc1cc(C(F)(F)F)cc(C(F)(F)F)c1)Nc1nc(CCCO)cs1 [Compound 125] | – | – | – | – |
| 970 | O=C(Nc1cc(C(F)(F)F)cc(C(F)(F)F)c1)Nc1nc(-c2ccccc2)cs1 [Compound 132] | – | – | – | – |
| 4630 | COc1ccccc1-c1csc(NC(=O)Nc2cc(C(F)(F)F)cc(C(F)(F)F)c2)n1 [Compound 133] | – | – | – | – |
| 4520 | COc1cccc(-c2csc(NC(=O)Nc3cc(C(F)(F)F)cc(C(F)(F)F)c3)n2)c1 [Compound 134] | – | – | – | – |
| 133 | O=C(Nc1cc(C(F)(F)F)cc(C(F)(F)F)c1)Nc1nc(-c2ccc(Br)cc2)cs1 [Compound 136] | – | – | – | – |
| – | CC(C)(C)c1csc(NC(=O)NCc2cccc(Cl)c2)n1 [Compound 172] | 12.5 | 25 | 8.10 (≈ 25 µM) | – |
| – | O=C(NCc1cccc(Cl)c1)Nc1nc(C2CCCC2)cs1 [Compound 173] | 25 | 25 | 8.40 (≈ 25 µM) | – |
